Measurements taken from ChEMBL document CHEMBL2429764, “Synthesis and cytotoxic activity of novel hybrid compounds between 2-alkylbenzofuran and imidazole” (Med Chem Res, 2013).

These molecules were tested on A549 (assay: Cytotoxicity against human A549 cells after 48 hrs by MTT assay). Conditions: A549, 48 h.
Type: functional, cell-based
Work on `CCCC[n+]1ccn(Cc2cc3ccccc3o2)c1` yielded an IC50 greater than 40 µM.
`c1ccc2oc(Cn3ccnc3)cc2c1` was tested, and the IC50 was greater than 40 µM.
`COc1ccc(C(=O)C[n+]2ccn(Cc3cc4ccccc4o3)c2C)cc1` gave an IC50 of 0.37 µM.
`Cc1nccn1Cc1cc2ccccc2o1` was tested, and the IC50 was greater than 40 µM.
Molecule `O=C(C[n+]1cn(Cc2cc3ccccc3o2)c2ccccc21)c1ccccc1` has an IC50 greater than 40 µM.
With `O=C(C[n+]1ccn(Cc2cc3ccccc3o2)c1)c1ccc(O)cc1` the IC50 was greater than 40 µM.
In the case of `CCc1n(Cc2cc3ccccc3o2)cc[n+]1CC(=O)c1ccc(O)cc1`, the IC50 is reported as greater than 40 µM.
In the case of `CCc1n(Cc2cc3ccccc3o2)cc[n+]1C(C(=O)c1ccccc1)c1ccccc1` (stereo not given), the IC50 is reported as 10.3 µM.
`Cc1n(Cc2cc3ccccc3o2)cc[n+]1CC(=O)c1ccccc1` showed an IC50 greater than 40 µM.
`Cc1n(Cc2cc3ccccc3o2)cc[n+]1Cc1ccccc1Br` showed an IC50 of 2.96 µM.
With `Cc1n(Cc2cc3ccccc3o2)cc[n+]1CC(=O)c1ccc(O)cc1` the IC50 was greater than 40 µM.
`Brc1ccccc1C[n+]1cn(Cc2cc3ccccc3o2)c2ccccc21` showed an IC50 of 2.63 µM.
`c1ccc2oc(Cn3cnc4ccccc43)cc2c1` showed an IC50 greater than 40 µM.
In the case of `O=C(C[n+]1ccn(Cc2cc3ccccc3o2)c1)c1ccccc1`, the IC50 is reported as greater than 40 µM.
In the case of `COc1ccc(C(=O)C[n+]2ccn(Cc3cc4ccccc4o3)c2)cc1`, the IC50 is reported as greater than 40 µM.
For `CCc1n(Cc2cc3ccccc3o2)cc[n+]1CC(=O)c1ccc(Br)cc1`, the IC50 was 25.7 µM.
`O=C(c1ccccc1)C(c1ccccc1)[n+]1cn(Cc2cc3ccccc3o2)c2ccccc21` (stereo not given) gave an IC50 of 12.6 µM.

Each molecule was assayed on HL-60 (assay: Cytotoxicity against human HL60 cells after 48 hrs by MTT assay). Conditions: HL-60, 48 h.
Type: functional, cell-based
Molecule `CCCC[n+]1ccn(Cc2cc3ccccc3o2)c1` has an IC50 greater than 40 µM.
`c1ccc2oc(Cn3ccnc3)cc2c1` gave an IC50 greater than 40 µM.
`COc1ccc(C(=O)C[n+]2ccn(Cc3cc4ccccc4o3)c2C)cc1` gave an IC50 of 0.78 µM.
For `Cc1nccn1Cc1cc2ccccc2o1`, the IC50 was greater than 40 µM.
`O=C(C[n+]1cn(Cc2cc3ccccc3o2)c2ccccc21)c1ccccc1` was tested, and the IC50 was greater than 40 µM.
Work on `O=C(C[n+]1ccn(Cc2cc3ccccc3o2)c1)c1ccc(O)cc1` yielded an IC50 greater than 40 µM.
Work on `CCc1n(Cc2cc3ccccc3o2)cc[n+]1CC(=O)c1ccc(O)cc1` yielded an IC50 greater than 40 µM.
`CCc1n(Cc2cc3ccccc3o2)cc[n+]1C(C(=O)c1ccccc1)c1ccccc1` (stereo not given) was tested, and the IC50 was 2.25 µM.
Work on `Cc1n(Cc2cc3ccccc3o2)cc[n+]1CC(=O)c1ccccc1` yielded an IC50 greater than 40 µM.
`Cc1n(Cc2cc3ccccc3o2)cc[n+]1Cc1ccccc1Br` was tested, and the IC50 was 1.28 µM.
`Cc1n(Cc2cc3ccccc3o2)cc[n+]1CC(=O)c1ccc(O)cc1` gave an IC50 greater than 40 µM.
For `Brc1ccccc1C[n+]1cn(Cc2cc3ccccc3o2)c2ccccc21`, the IC50 was 2.48 µM.
`c1ccc2oc(Cn3cnc4ccccc43)cc2c1` gave an IC50 greater than 40 µM.
For `O=C(C[n+]1ccn(Cc2cc3ccccc3o2)c1)c1ccccc1`, the IC50 was greater than 40 µM.
`COc1ccc(C(=O)C[n+]2ccn(Cc3cc4ccccc4o3)c2)cc1` gave an IC50 greater than 40 µM.
Molecule `CCc1n(Cc2cc3ccccc3o2)cc[n+]1CC(=O)c1ccc(Br)cc1` has an IC50 of 1.87 µM.
Molecule `O=C(c1ccccc1)C(c1ccccc1)[n+]1cn(Cc2cc3ccccc3o2)c2ccccc21` (stereo not given) has an IC50 of 6.77 µM.

These molecules were tested on MCF7 (assay: Cytotoxicity against human MCF7 cells after 48 hrs by MTT assay). Conditions: MCF7, 48 h.
Type: functional, cell-based
Work on `CCCC[n+]1ccn(Cc2cc3ccccc3o2)c1` yielded an IC50 greater than 40 µM.
Work on `c1ccc2oc(Cn3ccnc3)cc2c1` yielded an IC50 greater than 40 µM.
With `COc1ccc(C(=O)C[n+]2ccn(Cc3cc4ccccc4o3)c2C)cc1` the IC50 was 1.44 µM.
In the case of `Cc1nccn1Cc1cc2ccccc2o1`, the IC50 is reported as greater than 40 µM.
For `O=C(C[n+]1cn(Cc2cc3ccccc3o2)c2ccccc21)c1ccccc1`, the IC50 was greater than 40 µM.
With `O=C(C[n+]1ccn(Cc2cc3ccccc3o2)c1)c1ccc(O)cc1` the IC50 was greater than 40 µM.
In the case of `CCc1n(Cc2cc3ccccc3o2)cc[n+]1CC(=O)c1ccc(O)cc1`, the IC50 is reported as greater than 40 µM.
`CCc1n(Cc2cc3ccccc3o2)cc[n+]1C(C(=O)c1ccccc1)c1ccccc1` (stereo not given) gave an IC50 of 3.3 µM.
Work on `Cc1n(Cc2cc3ccccc3o2)cc[n+]1CC(=O)c1ccccc1` yielded an IC50 greater than 40 µM.
For `Cc1n(Cc2cc3ccccc3o2)cc[n+]1Cc1ccccc1Br`, the IC50 was 2.24 µM.
`Cc1n(Cc2cc3ccccc3o2)cc[n+]1CC(=O)c1ccc(O)cc1` showed an IC50 greater than 40 µM.
`Brc1ccccc1C[n+]1cn(Cc2cc3ccccc3o2)c2ccccc21` showed an IC50 of 7.48 µM.
`c1ccc2oc(Cn3cnc4ccccc43)cc2c1` showed an IC50 greater than 40 µM.
For `O=C(C[n+]1ccn(Cc2cc3ccccc3o2)c1)c1ccccc1`, the IC50 was greater than 40 µM.
For `COc1ccc(C(=O)C[n+]2ccn(Cc3cc4ccccc4o3)c2)cc1`, the IC50 was greater than 40 µM.
`CCc1n(Cc2cc3ccccc3o2)cc[n+]1CC(=O)c1ccc(Br)cc1` gave an IC50 of 4.47 µM.
`O=C(c1ccccc1)C(c1ccccc1)[n+]1cn(Cc2cc3ccccc3o2)c2ccccc21` (stereo not given) gave an IC50 of 9.83 µM.

What follows are molecules tested on SMMC-7721 (assay: Cytotoxicity against human SMMC7721 cells after 48 hrs by MTT assay). Conditions: SMMC-7721, 48 h.
Type: functional, cell-based
`CCCC[n+]1ccn(Cc2cc3ccccc3o2)c1` was tested, and the IC50 was greater than 40 µM.
`c1ccc2oc(Cn3ccnc3)cc2c1` was tested, and the IC50 was greater than 40 µM.
With `COc1ccc(C(=O)C[n+]2ccn(Cc3cc4ccccc4o3)c2C)cc1` the IC50 was 11.6 µM.
`Cc1nccn1Cc1cc2ccccc2o1` was tested, and the IC50 was greater than 40 µM.
For `O=C(C[n+]1cn(Cc2cc3ccccc3o2)c2ccccc21)c1ccccc1`, the IC50 was greater than 40 µM.
Work on `O=C(C[n+]1ccn(Cc2cc3ccccc3o2)c1)c1ccc(O)cc1` yielded an IC50 greater than 40 µM.
For `CCc1n(Cc2cc3ccccc3o2)cc[n+]1CC(=O)c1ccc(O)cc1`, the IC50 was greater than 40 µM.
For `CCc1n(Cc2cc3ccccc3o2)cc[n+]1C(C(=O)c1ccccc1)c1ccccc1` (stereo not given), the IC50 was 6.16 µM.
`Cc1n(Cc2cc3ccccc3o2)cc[n+]1CC(=O)c1ccccc1` was tested, and the IC50 was greater than 40 µM.
`Cc1n(Cc2cc3ccccc3o2)cc[n+]1Cc1ccccc1Br` showed an IC50 of 10.2 µM.
`Cc1n(Cc2cc3ccccc3o2)cc[n+]1CC(=O)c1ccc(O)cc1` showed an IC50 greater than 40 µM.
Work on `Brc1ccccc1C[n+]1cn(Cc2cc3ccccc3o2)c2ccccc21` yielded an IC50 of 6.83 µM.
`c1ccc2oc(Cn3cnc4ccccc43)cc2c1` gave an IC50 greater than 40 µM.
Molecule `O=C(C[n+]1ccn(Cc2cc3ccccc3o2)c1)c1ccccc1` has an IC50 greater than 40 µM.
`COc1ccc(C(=O)C[n+]2ccn(Cc3cc4ccccc4o3)c2)cc1` showed an IC50 greater than 40 µM.
With `CCc1n(Cc2cc3ccccc3o2)cc[n+]1CC(=O)c1ccc(Br)cc1` the IC50 was 7.51 µM.
`O=C(c1ccccc1)C(c1ccccc1)[n+]1cn(Cc2cc3ccccc3o2)c2ccccc21` (stereo not given) showed an IC50 of 14.8 µM.

Each molecule was assayed on SW480 (assay: Cytotoxicity against human SW480 cells after 48 hrs by MTT assay). Conditions: SW480, 48 h.
Type: functional, cell-based
Molecule `CCCC[n+]1ccn(Cc2cc3ccccc3o2)c1` has an IC50 greater than 40 µM.
`c1ccc2oc(Cn3ccnc3)cc2c1` gave an IC50 greater than 40 µM.
`COc1ccc(C(=O)C[n+]2ccn(Cc3cc4ccccc4o3)c2C)cc1` was tested, and the IC50 was 0.28 µM.
In the case of `Cc1nccn1Cc1cc2ccccc2o1`, the IC50 is reported as greater than 40 µM.
With `O=C(C[n+]1cn(Cc2cc3ccccc3o2)c2ccccc21)c1ccccc1` the IC50 was greater than 40 µM.
With `O=C(C[n+]1ccn(Cc2cc3ccccc3o2)c1)c1ccc(O)cc1` the IC50 was greater than 40 µM.
`CCc1n(Cc2cc3ccccc3o2)cc[n+]1CC(=O)c1ccc(O)cc1` was tested, and the IC50 was greater than 40 µM.
`CCc1n(Cc2cc3ccccc3o2)cc[n+]1C(C(=O)c1ccccc1)c1ccccc1` (stereo not given) showed an IC50 of 7.15 µM.
`Cc1n(Cc2cc3ccccc3o2)cc[n+]1CC(=O)c1ccccc1` was tested, and the IC50 was greater than 40 µM.
Work on `Cc1n(Cc2cc3ccccc3o2)cc[n+]1Cc1ccccc1Br` yielded an IC50 of 3.89 µM.
With `Cc1n(Cc2cc3ccccc3o2)cc[n+]1CC(=O)c1ccc(O)cc1` the IC50 was greater than 40 µM.
Work on `Brc1ccccc1C[n+]1cn(Cc2cc3ccccc3o2)c2ccccc21` yielded an IC50 of 14.7 µM.
Work on `c1ccc2oc(Cn3cnc4ccccc43)cc2c1` yielded an IC50 greater than 40 µM.
In the case of `O=C(C[n+]1ccn(Cc2cc3ccccc3o2)c1)c1ccccc1`, the IC50 is reported as greater than 40 µM.
For `COc1ccc(C(=O)C[n+]2ccn(Cc3cc4ccccc4o3)c2)cc1`, the IC50 was greater than 40 µM.
For `CCc1n(Cc2cc3ccccc3o2)cc[n+]1CC(=O)c1ccc(Br)cc1`, the IC50 was 1.34 µM.
For `O=C(c1ccccc1)C(c1ccccc1)[n+]1cn(Cc2cc3ccccc3o2)c2ccccc21` (stereo not given), the IC50 was 9.75 µM.
